# Legend:
# [1] = target: T1, UT-B (Homo sapiens, UniProt Q13336); assay: Stopped-flow light scattering, urea permeability of human RBCs; format: cell-based; conditions: for inhibition of urea transport, inhibitor added only to urea-containing solution (sidedness): 0.1 μM ureainh-101, 0.2 μM ureainh-302, external exposure at time of mixing; for reversibility of inhibition after washing RBCs: 10 min pre-incubation, then wash
# T1 construct: the indicator cells are red blood cells that endogenously express the UT-B urea transporter; endogenous in cells; host or cells: human red blood cells (whole venous blood, single donor)
# T1 sequence (Q13336 1-389): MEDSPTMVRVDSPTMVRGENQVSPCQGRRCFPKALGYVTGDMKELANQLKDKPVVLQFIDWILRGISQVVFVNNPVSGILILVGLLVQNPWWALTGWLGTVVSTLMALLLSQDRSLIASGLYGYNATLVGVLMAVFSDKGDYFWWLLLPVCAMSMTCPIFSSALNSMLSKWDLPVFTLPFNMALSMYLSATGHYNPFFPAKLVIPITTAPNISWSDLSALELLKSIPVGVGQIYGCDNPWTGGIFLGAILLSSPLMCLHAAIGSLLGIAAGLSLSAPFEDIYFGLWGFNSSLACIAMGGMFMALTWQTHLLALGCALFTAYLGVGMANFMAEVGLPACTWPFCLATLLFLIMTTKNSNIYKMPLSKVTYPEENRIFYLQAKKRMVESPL
# Experimental: RBC urea and water permeabilities were assayed by stopped-flow light scattering using a Hi-Tech Sf-51 instrument (Wiltshire, UK). […] After an initial osmotic shrinking phase, the kinetics of increasing cell volume caused by urea influx were measured as the time-course of 90° scattered light intensity at 530 nm, with increasing cell volume resulting in reduced scattered light intensity. As a positive control, 0.7 mM phloretin was added to the RBC suspension prior to stopped-flow experiments. Measurements of water permeability were carried out similarly, with sucrose (cell-impermeant) used instead of urea to establish a 250-mM osmotic gradient. As a positive control, HgCl2 (0.3 mM) was added to the RBC suspension prior to stopped-flow measurements. Osmotic water permeability coefficients (Pf) were computed from light scattering data as described (van Hoek et al., J. Biol. Chem. 267:18267-69 (1992)).
# After repeating the 96-well plate RBC lysis assay to confirm compound activity (see Example 2), bona fide urea transport inhibition was determined by stopped-flow light scattering from the kinetics of urea influx (RBC swelling) in response to an inwardly directed urea gradient. Rapid mixing of an RBC suspension with a hyperosmolar solution containing excess 250 mM urea produced rapid cell shrinking due to osmotic water efflux, followed by cell swelling as urea (and water) influx occurred.
# To determine EC50 values for urea transport inhibition directly, RBC urea transport was measured by stopped-flow light scattering using a non-saturating concentration of extracellular urea (to avoid possible competition effects). EC50 for inhibition of RBC urea transport was determined independently by comparing stopped-flow light scattering curves to a model of cell shrinking-swelling.
# For stopped-flow experiments, a 100-mM gradient of urea (for human RBCs) or N-methylurea (for mouse RBCs) was used to minimize competition effects (apparent urea and N-methylurea affinities at 23° C. are approximately 200 and approximately 100 mM, respectively) (Mayrand et al., J. Gen. Physiol. 81:221-37 (1983)). N-methylurea, with greater than 2-fold slower RBC permeability than urea, was used in mouse studies to better resolve overlapping water and urea transport kinetics. Dose-response data were also collected for human RBCs using a high concentration of 1 M urea to distinguish between competitive vs. non-competitive inhibitor binding.
# The two coupled differential equations describing water efflux and solute influx in response to externally added urea or methylurea were numerically integrated using the forward Euler method (Δt=0.01 s) to reproduce the biphasic changes in cell volume observed experimentally. Computations that were performed using the smaller time step (Δt=0.001 s) gave similar results, confirming the adequacy of the 0.01 s time step. Water flux, Jv (in cm^3/s), across erythrocyte membranes is represented by the following equation: Jv=−Pf·S·vw·[(Ie−Ic(i))+(Ue−Uc(i))]; solute flux, Js (in mol/s), is represented by the following equation: Ps·S·(Ue−Uc(i). Permeability coefficients (Pf and Ps) are expressed in units of cm/s, cell surface area (S) in cm^2, extracellular (e) and cellular (c) concentrations of impermeant (I) and urea/methylurea (U) solute in mol/cm^3, and vw is […]. Initial conditions were Ie=Ic(0)=2.9×10^−4 mol/cm^3, Ue=10^−4 mol/cm^3, and Uc(0)=0. For each time step, a new cell volume (normalized to the initial size; V(i+1)/V(0)) and a new cell permeant concentration (U(i+1)) were calculated from V(i+1)/V(0)=V(i)/V(0)−Δt·Pf·(S/V(0))·vw·[Ie(1−V(i)/V(0))+(Ue−Uc(i))] and Uc(i+1)=Uc(i)/V(0)−Δt·Us·(S/V(0))·vw·(Ue−Uc(i)). Normalized cell volume was assumed to be inversely proportional to scattered light intensity. The product of Pf and the surface area-to-volume ratio (S/V(0)) was determined to be 3.4×10^2 s^−1 and 8.5×10^2 s^−1 for human and mouse erythrocytes, respectively, from water permeability measurements. […]
# [2] = tested on: urea transporter (UT); conditions: 23° C., RBC urea transport; cited from earlier work
# [3] = target: T2, UT-B-facilitated water transport (Mus musculus, UniProt Q8VHL0); assay: Osmotic water permeability by stopped-flow light scattering, RBCs from AQP1-null mice; format: cell-based
# T2 construct: endogenous in cells; host or cells: mouse red blood cells (AQP1-null and wild-type mice, CD1 background)
# T2 sequence (Q8VHL0 1-384): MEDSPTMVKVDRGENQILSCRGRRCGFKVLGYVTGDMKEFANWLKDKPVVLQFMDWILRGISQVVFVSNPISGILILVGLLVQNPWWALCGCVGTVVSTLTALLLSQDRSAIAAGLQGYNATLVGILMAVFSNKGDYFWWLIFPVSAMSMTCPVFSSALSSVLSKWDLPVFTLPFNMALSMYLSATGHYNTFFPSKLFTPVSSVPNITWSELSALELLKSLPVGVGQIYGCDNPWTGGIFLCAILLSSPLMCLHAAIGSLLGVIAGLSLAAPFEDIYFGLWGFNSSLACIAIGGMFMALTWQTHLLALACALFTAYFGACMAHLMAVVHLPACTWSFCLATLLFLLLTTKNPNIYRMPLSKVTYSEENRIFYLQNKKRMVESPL
# Experimental: RBC urea and water permeabilities were assayed by stopped-flow light scattering using a Hi-Tech Sf-51 instrument (Wiltshire, UK). For measurement of urea permeability, dilutions of whole blood (human or mouse; see Example 1) in PBS (hematocrit: approximately 0.5%) were incubated with test compounds for 5 min and then subjected to a 250-mM inwardly directed gradient of urea. After an initial osmotic shrinking phase, the kinetics of increasing cell volume caused by urea influx were measured as the time-course of 90° scattered light intensity at 530 nm, with increasing cell volume resulting in reduced scattered light intensity. As a positive control, 0.7 mM phloretin was added to the RBC suspension prior to stopped-flow experiments. Measurements of water permeability were carried out similarly, with sucrose (cell-impermeant) used instead of urea to establish a 250-mM osmotic gradient. As a positive control, HgCl2 (0.3 mM) was added to the RBC suspension prior to stopped-flow measurements. […]
# This example describes chemical knock-out of UT-B by UT-B inhibitors in RBCs and the effect on UT-B-facilitated water transport. […] Osmotic water permeability was measured by stopped-flow light scattering in RBCs from wild-type and AQP1-null mice as shown in FIG. 8A. […]
# [4] = tested on: RBCs from wild-type mice; assay: Osmotic water permeability by stopped-flow light scattering, RBCs from wild-type mice; format: cell-based, mouse
# Experimental: RBC urea and water permeabilities were assayed by stopped-flow light scattering using a Hi-Tech Sf-51 instrument (Wiltshire, UK). For measurement of urea permeability, dilutions of whole blood (human or mouse; see Example 1) in PBS (hematocrit: approximately 0.5%) were incubated with test compounds for 5 min and then subjected to a 250-mM inwardly directed gradient of urea. After an initial osmotic shrinking phase, the kinetics of increasing cell volume caused by urea influx were measured as the time-course of 90° scattered light intensity at 530 nm, with increasing cell volume resulting in reduced scattered light intensity. As a positive control, 0.7 mM phloretin was added to the RBC suspension prior to stopped-flow experiments. Measurements of water permeability were carried out similarly, with sucrose (cell-impermeant) used instead of urea to establish a 250-mM osmotic gradient. As a positive control, HgCl2 (0.3 mM) was added to the RBC suspension prior to stopped-flow measurements. Osmotic water permeability coefficients (Pf) were computed from light scattering data as described (van Hoek et al., J. Biol. Chem. 267:18267-69 (1992)).
# This example describes chemical knock-out of UT-B by UT-B inhibitors in RBCs and the effect on UT-B-facilitated water transport. […] Osmotic water permeability was measured by stopped-flow light scattering in RBCs from wild-type and AQP1-null mice as shown in FIG. 8A. […] AQP1-null RBCs had greater than 5-fold reduced Pf compared to wild-type RBCs.
# [5] = target: T1, UT-B; assay: RBC lysis assay, human RBCs loaded with acetamide; format: cell-based; conditions: UT-B inhibitory potency
smiles,measurement,setting,value
"CC(N)=O [Acetamide, reference compound]",share of transport in RBCs that is UT-B-dependent,[1]; stopped-flow light scattering,greater than 95%
CNC(N)=O [N-methylurea],apparent affinity,[2],approximately 100 mM
NC(N)=O [urea],apparent affinity,[2],approximately 200 mM
"NC(=O)CSc1oc(-c2ccccc2)nc1S(=O)(=O)c1ccc(Br)cc1 [ureainh-101, 2-(4-(4-bromophenylsulfonyl)-2-phenyloxazol-5-ylthio)acetamide]","inhibition of urea transport, inhibitor added only to urea-containing solution (sidedness)",[1],did not inhibit urea transport
same,reversibility of inhibition after washing RBCs,[1],fully reversible inhibition
same,effect on water permeability,[3],further inhibited
same,effect on water transport,[4],little effect
"Cc1ccc(Nc2nnc(-c3ccc(C(N)=O)cc3)c3ccccc23)cc1 [ureainh-302, 4-(4-(p-tolylamino)phthalazin-1-yl)benzamide]","inhibition of urea transport, inhibitor added only to urea-containing solution (sidedness)",[1],sizable effect
same,inhibition at 0.4 µM,"[1]; 0.1 μM ureainh-101, 0.4 μM ureainh-302, read-out: transport inhibition after 10 min pre-incubation",> 95%
same,reversibility of inhibition after washing RBCs,[1],fully reversible inhibition
same,EC50,"[5]; Table 5, phthalazinamines",0.2 µM
same,effect on water permeability,[3],further inhibited
same,effect on water transport,[4],little effect
"C=CCn1c(NCc2cc(OC)ccc2O)nc2ccccc21 [ureainh-419, 2-((1-allyl-1H-benzo[d]imidazol-2-ylamino)methyl)-4-methoxyphenol]",EC50,"[5]; Table 7, aminobenzimidazoles",25 µM
"COc1ccc(O)c(CNc2nc3ccccc3n2C(C)C)c1 [ureainh-420, 2-((1-isopropyl-1H-benzo[d]imidazol-2-ylamino)methyl)-4-methoxyphenol]",EC50,"[5]; Table 7, aminobenzimidazoles",3 µM
"CCn1c(NCc2c(O)ccc3ccccc23)nc2ccccc21 [ureainh-421, 1-((1-ethyl-1H-benzo[d]imidazol-2-ylamino)methyl)naphthalen-2-ol]",EC50,"[5]; Table 7, aminobenzimidazoles",3 µM
"CCn1c(NCc2cccc(OC)c2O)nc2ccccc21 [ureainh-422, 2-((1-ethyl-1H-benzo[d]imidazol-2-ylamino)methyl)-6-methoxyphenol]",EC50,"[5]; Table 7, aminobenzimidazoles",11 µM
"CCn1c(NC(C)c2cc(Cl)ccc2O)nc2ccccc21 (stereo not drawn) [ureainh-423, 4-chloro-2-(1-(1-ethyl-1H-benzo[d]imidazol-2-ylamino)ethyl)phenol]",EC50,"[5]; Table 7, aminobenzimidazoles",5 µM

# Source: US9316633B2, “Methods for identifying inhibitors of solute transporters” (The Regents of the University of California, priority 2006, dated 2016)
